Results on 32 compounds are retold here after patent publication US9856216B2, “Compounds as TNIK, IKKε and TBK1 inhibitors and pharmaceutical composition comprising same” (GREEN CROSS CORPORATION, priority 2015, dated 2018).

Each structure is given as a SMILES string. Structures can show the parent of a compound that is named as a salt.

In one assay the target is T1, TNIK (Homo sapiens, UniProt Q9UKE5).
T1 construct: purchased Promega V4158
T1 sequence (Q9UKE5 1-367 limits assumed): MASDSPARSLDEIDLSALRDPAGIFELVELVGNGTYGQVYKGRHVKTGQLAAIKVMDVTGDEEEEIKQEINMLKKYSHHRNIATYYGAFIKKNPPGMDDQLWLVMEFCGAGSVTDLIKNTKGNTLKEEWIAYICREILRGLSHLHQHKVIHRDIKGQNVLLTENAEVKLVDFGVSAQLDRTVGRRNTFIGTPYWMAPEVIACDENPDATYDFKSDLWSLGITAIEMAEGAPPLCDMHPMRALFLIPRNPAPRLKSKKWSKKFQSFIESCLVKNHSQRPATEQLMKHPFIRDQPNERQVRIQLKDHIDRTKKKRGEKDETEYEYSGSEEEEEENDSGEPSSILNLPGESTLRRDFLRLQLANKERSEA
The assay is described as follows: ADP-Glo Kinase Assay, inhibition activity on TNIK.
Details: not given
It counts as biochemical. The protocol:
The inhibition activities on TNIK, IKKε and TBK1 were measured by a luminometer, TNIK/IKKε/TBK1 Kinase Enzyme System (Promega, Ca# V4158; Invitrogen, PR8031B, Promega, Ca# V3991) and ADP-Glo Kinase Assay using ADP-Glo™ Kinase Analysis Kit (Promega, Ca# V9101) and a kinase reaction buffer [40 mM Tris(pH 7.5), 20 mM MgCl2, 0.1 mg/mL BSA] in accordance with the manufacturer's protocol.
Consider `COc1cc(F)ccc1-c1ccc(NC(=O)c2ccccc2)c2c1CNC2=O` [Example 22, N-(7-(4-fluoro-2-methoxyphenyl)-3-oxoisoindolin-4-yl)benzamide], for which the “TNIK (μM)” value is listed as “Insoluble”.

Staying with this assay, now noted: read-out: TNIK.
As to `O=C(Nc1cccc(F)c1)Nc1ccc(-c2ccccc2)c2c1C(=O)NC2` [Example 240, 1-(3-Fluorophenyl)-3-(3-oxo-7-phenylisoindolin-4-yl)urea], the IC50 came out at 2400 nM.
Still for that read-out and setting: then `COc1ccc(-c2ccc(NC(=O)Nc3ccccc3)c3c2CNC3=O)cc1` [Example 244, 1-(7-(4-Methoxyphenyl)-3-oxoisoindolin-4-yl)-3-phenylurea], with 4020 nM.
The same measure, in the same setting: next, `COc1ccc(C(=O)Nc2ccc(-c3ccccc3)c3c2C(=O)NC3)cc1` [Example 121, 4-Methoxy-N-(3-oxo-7-phenylisoindolin-4-yl)benzamide]: 3400 nM; `O=C(Nc1ccc(Cc2ccccc2)c2c1C(=O)NC2)c1ccc(F)cc1` [Example 219, N-(7-benzyl-3-oxoisoindolin-4-yl)-4-fluorobenzamide]: 13900 nM.
Same read-out and setting: next, `CN1CCN(CCNc2ccc(C(=O)Nc3ccc(-c4ccccc4)c4c3C(=O)NC4)cc2)CC1` [Example 379, 4-((2-(4-Methylpiperazin-1-yl)ethyl)amino)-N-(3-oxo-7-phenylisoindolin-4-yl)benzamide]: 350 nM; `O=C(Nc1ccc(-c2ccccc2)c2c1C(=O)NC2=O)c1ccccc1` [Example 276, N-(1,3-dioxo-7-phenylisoindolin-4-yl)benzamide]: 1100 nM.
As to `COc1c(F)cccc1-c1ccc(NC(=O)c2ccccc2)c2c1CNC2=O` [Example 48, N-(7-(3-fluoro-2-methoxyphenyl)-3-oxoisoindolin-4-yl) benzamide], the IC50 was found to be 490 nM.
The same measure, in the same setting: next, `O=C(Nc1ccc(S(=O)(=O)c2ccccc2)c2c1C(=O)NC2)c1ccccc1` [Example 406, N-(3-oxo-7-(phenylsulfonyl)isoindolin-4-yl)benzamide]: more than 20000 nM.
Same read-out and setting: next, `CC(=O)Nc1ccc(C(=O)Nc2ccc(-c3ccc(F)cc3)c3c2C(=O)NC3)cc1` [Example 124, 4-Acetamido-N-(7-(4-fluorophenyl)-3-oxoisoindolin-4-yl) benzamide]: 170 nM.
The same measure, in the same setting: next, `Cc1cccc(-c2ccc(NC(=O)c3ccccc3)c3c2CNC3=O)c1C` [Example 16, N-(7-(2,3-dimethylphenyl)-3-oxoisoindolin-4-yl)benzamide]: 1300 nM; `CN1CCN(CCCNc2ccc(C(=O)Nc3ccc(Nc4ccccc4)c4c3C(=O)NC4)cc2)CC1` [Example 463, 4-((3-(4-Methylpiperazin-1-yl)propyl)amino)-N-(3-oxo-7-(phenylamino)isoindolin-4-yl)benzamide]: 370 nM; `COc1cccc(-c2ccc(NC(=O)c3ccc(NCCN4CCCC4)cc3)c3c2CNC3=O)c1OC` [Example 304, N-(7-(2,3-dimethoxyphenyl)-3-oxoisoindolin-4-yl)-4-((2-(pyrrolidin-1-yl)ethyl)amino)benzamide hydrochloride]: 73 nM.
On to `CC(=O)Nc1cccc(C(=O)Nc2ccc(-c3ccccc3)c3c2C(=O)NC3)c1` [Example 107, 3-Acetamido-N-(3-oxo-7-phenylisoindolin-4-yl)benzamide], for which the IC50 is 480 nM.
`COc1ccccc1NC(=O)Nc1ccc(-c2ccccc2)c2c1C(=O)NC2` [Example 233, 1-(2-Methoxyphenyl)-3-(3-oxo-7-phenylisoindolin-4-yl)urea]: the IC50 turned out to be 16700 nM.
Still for that read-out and setting: next, `CCOc1cccc(-c2ccc(NC(=O)c3ccccc3)c3c2CNC3=O)c1` [Example 177, N-(7-(3-ethoxyphenyl)-3-oxoisoindolin-4-yl)benzamide]: 8100 nM; `O=C(Nc1ccc(Nc2cccc(F)c2)c2c1C(=O)NC2)c1ccccc1` [Example 415, N-(7-((3-fluorophenyl)amino)-3-oxoisoindolin-4-yl)benzamide]: 1700 nM; `CC(=O)Nc1ccc(C(=O)Nc2ccc(-c3ccccc3)c3c2C(=O)NC3)cc1` [Example 116, 4-Acetamido-N-(3-oxo-7-phenylisoindolin-4-yl)benzamide]: 130 nM.
The same measure, in the same setting: then `O=C(Nc1ncc(-c2ccccc2)c2c1C(=O)NC2)c1ccc(F)cc1` [Example 279, 4-Fluoro-N-(3-oxo-7-phenyl-2,3-dihydro-1H-pyrrolo[3,4-c]pyridin-4-yl)benzamide], with more than 20000 nM; and `O=C(Nc1ccc(-c2c[nH]cn2)c2c1C(=O)NC2)c1ccccc1` [Example 54, N-(7-(1H-imidazol-4-yl)-3-oxoisoindolin-4-yl)benzamide], with 3820 nM.
Same read-out and setting: then `CN(C)c1cccc(-c2ccc(NC(=O)c3ccccc3)c3c2CNC3=O)c1` [Example 148, N-(7-(3-(dimethylamino)phenyl)-3-oxoisoindolin-4-yl) benzamide], with 7400 nM; and `COc1ccc(C(=O)Nc2ccc(-c3ccccc3)c3c2C(=O)NC3)c(OC)c1` [Example 101, 2,4-Dimethoxy-N-(3-oxo-7-phenylisoindolin-4-yl)benzamide], with more than 20000 nM.
For the compound `Cc1ccc(-c2ccc(NC(=O)c3ccccc3)c3c2CNC3=O)c(C)c1` [Example 38, N-(7-(2,4-dimethylphenyl)-3-oxoisoindolin-4-yl)benzamide], the IC50 came to 1700 nM.
Take `COc1ccccc1-c1ccc(NC(=O)c2ccccc2)c2c1C(=O)NC2=O` [Example 277, N-(7-(2-methoxyphenyl)-1,3-dioxoisoindolin-4-yl)benzamide]: the IC50 stood at 650 nM.
Still for that read-out and setting: then `O=C(Nc1ccc(-c2ccccc2)c2c1C(=O)NC2)c1cccnc1` [Example 213, N-(3-oxo-7-phenylisoindolin-4-yl)nicotinamide], with 600 nM; and `CN(C)CCNc1ccc(C(=O)Nc2ccc(Br)c3c2C(=O)NC3)cc1` [Example 281, N-(7-bromo-3-oxoisoindolin-4-yl)-4-((2-(dimethylamino)ethyl)amino)benzamide], with 2420 nM; and `COc1cccc(-c2ccc(NC(=O)c3ccc(F)cc3)c3c2CNC3=O)c1OC` [Example 135, N-(7-(2,3-dimethoxyphenyl)-3-oxoisoindolin-4-yl)-4-fluoro benzamide], with 140 nM.
With `COc1cccc(-c2ccc(NC(=O)c3ccccc3)c3c2CNC3=O)c1` [Example 145, N-(7-(3-methoxyphenyl)-3-oxoisoindolin-4-yl)benzamide], the IC50 turned out to be 1300 nM.
Still for that read-out and setting: next, `COc1ccc(S(=O)(=O)Nc2ccc(-c3ccccc3)c3c2C(=O)NC3)cc1` [Example 252, 4-Methoxy-N-(3-oxo-7-phenylisoindolin-4-yl)benzene sulfonamide]: more than 20000 nM; `CNc1ccc(C(=O)Nc2ccc(-c3ccccc3)c3c2C(=O)NC3)cc1` [Example 108, 4-(Methylamino)-N-(3-oxo-7-phenylisoindolin-4-yl)benzamide]: 780 nM; `O=C(Nc1ccc(-c2ccsc2)c2c1C(=O)NC2)c1ccccc1` [Example 146, N-(3-oxo-7-(thiophen-3-yl)isoindolin-4-yl)benzamide]: more than 20000 nM.
On the same count and under the same terms, then `O=C(Nc1ccc(-c2cccs2)c2c1C(=O)NC2)c1ccccc1` [Example 125, N-(3-oxo-7-(thiophen-2-yl)isoindolin-4-yl)benzamide], with 1400 nM.
